Laboratory results taken from patent US4731360A, “Acylcarnitines as absorption-enhancing agents for drug delivery through mucous membranes of the nasal, buccal, sublingual and vaginal compartments” (Merck & Co., Inc., priority 1985, dated 1988).

How the values were obtained:
[1] = tested on: mucous membranes of the nasal, buccal, sublingual and vaginal compartments; test: Promotion of drug absorption through mucous membranes; details: without acyl ester
[2] = tested on: mucosal cells; details: studies of surfactants; cited from earlier work
[3] = Percent bioavailability of α-methyldopa after nasal, oral (buccal) or vaginal administration to rats, with or without palmitoylcarnitine chloride; blood levels by HPLC, against intravenous administration; format: in vivo; details: aqueous formulation, mean ± SD, n = 3, vs intravenous; for Percent α-methyldopa Bioavailability in the Presence (+) of Palmitoylcarnitine: with 1.0 mg palmitoylcarnitine chloride; for Percent α-methyldopa Bioavailability in the Absence (-) of Palmitoylcarnitine: without palmitoylcarnitine
Protocol: Effect of palmitoylcarnitine chloride on the nasal, buccal and vaginal absorption of α-methyldopa (amino acid, antihypertensive). Experiments were performed with rats wherein each animal received an aqueous formulation administered to the nasal, oral or vaginal cavities. The formulations contained the indicated amount of α-methyldopa in the presence or absence of 1.0 mg palmitoylcarnitine chloride. Procedures were tested to eliminate the possibility of cross-contamination between the nasal and oral cavities. Blood levels of α-methyldopa were determined by high performance liquid chromatography and the amount of drug absorbed (percent bioavailability) calculated against intravenous α-methyldopa administration. | Values represent the mean ± SD for n = 3 determinations.

[4] = nasal cavity, α-methyldopa 0.5 mg
[5] = oral cavity (buccal), α-methyldopa 2.5 mg
[6] = vaginal cavity, α-methyldopa 2.5 mg

C[N+](C)(C)CC(O)CC(=O)[O-] (centres unmarked) [carnitine]
absorption promoting effect of carnitine alone [1]: no effect

CCCCCCCCCCCCOS(=O)(=O)[O-].[Na+] [sodium lauryl sulfate]
cellular damage associated with surfactant activity [2]: generally associated with some degree of cellular damage

C[C@](N)(Cc1ccc(O)c(O)c1)C(=O)O [α-methyldopa]
Percent α-methyldopa Bioavailability in the Presence (+) of Palmitoylcarnitine [3, 4]: 52 ± 16.2%
Percent α-methyldopa Bioavailability in the Absence (-) of Palmitoylcarnitine [3, 4]: 7 ± 1.1%
Percent α-methyldopa Bioavailability in the Presence (+) of Palmitoylcarnitine [3, 5]: 10 ± 6.0%
Percent α-methyldopa Bioavailability in the Absence (-) of Palmitoylcarnitine [3, 5]: 3 ± 0.7%
Percent α-methyldopa Bioavailability in the Presence (+) of Palmitoylcarnitine [3, 6]: 100 ± 55.0%
Percent α-methyldopa Bioavailability in the Absence (-) of Palmitoylcarnitine [3, 6]: 2 ± 1.0%
